# Values of other authors as cited in article PMC11768433 (Viruses, 2024).
# Like-named read-outs stand apart in the source and are kept apart here.
# What was measured:
# Vero cells [1] = system: Vero cells; design: method as in Ref.18572274; conditions: up to 500 μM, ref Ref.18572274
# HSV-1 = system: HSV-1; design: method as in Ref.35216177; conditions: HSV-1 replication, Vero cells; ref Ref.35216177
# HCoV-229E = system: HCoV-229E; design: method as in Ref.35216177; conditions: HCoV-229E replication, Vero cells; ref Ref.35216177
# HSV-2 = system: HSV-2; design: method as in Ref.35216177; conditions: HSV-2 replication, Vero cells; ref Ref.35216177
# HPIV-3 = system: HPIV-3; design: method as in Ref.35216177; conditions: HPIV-3 replication, Vero cells; ref Ref.35216177
# Vero cells [2] = system: Vero cells; design: method as in Ref.35216177; conditions: ref Ref.35216177
# HCoV-OC43 = system: HCoV-OC43; design: method as in Ref.35216177; conditions: HCoV-OC43 replication, Vero cells; ref Ref.35216177
# SARS-CoV-2 [3] = system: SARS-CoV-2; design: method as in Ref.35216177; conditions: SARS-CoV-2 replication, Vero cells; ref Ref.35216177
# Huh7.5.1 cells = system: Huh7.5.1 cells; design: method as in Ref.22378192; conditions: ref Ref.22378192
# [4] = system: Herpes simplex virus type 1(HSV-1); design: method as in Ref.18572274; conditions: HSV-1 entry, Vero cells, at 250μM; ref Ref.18572274
# P4-CCR5 cells = system: P4-CCR5 cells; design: method as in Ref.15780876; conditions: ref Ref.15780876
# hepatitis C virus(HCVpp) = system: hepatitis C virus(HCVpp); design: method as in Ref.20156485; conditions: Huh-7 human hepatoma cells, ref Ref.20156485
# Huh-7 cells = system: Huh-7 cells; design: method as in Ref.20156485; conditions: ref Ref.20156485
# MDCK cells = system: MDCK cells; design: method as in Ref.17005658; conditions: up to 50μM, ref Ref.17005658
# HIV-1 = system: HIV-1; design: method as in Ref.12054767; conditions: up to 100 μM; ref Ref.12054767
# P4 cells = system: P4 cells; design: method as in Ref.12054767; conditions: MTT assay, peptide concentrations higher than 100 μM, ref Ref.12054767
# MT-4 cells = system: MT-4 cells; design: method as in Ref.30867304; conditions: ref Ref.30867304
# U937 cells = system: U937 cells; design: method as in Ref.30867304; conditions: U937 cells (cell text ends after μ); ref Ref.30867304
# C8166 cells = system: C8166 cells; design: method as in Ref.30867304; conditions: ref Ref.30867304
# Human PBMC = system: Human PBMC; design: method as in Ref.30867304; conditions: ref Ref.30867304
# TZM-bl cells = system: TZM-bl cells; design: method as in Ref.30867304; conditions: ref Ref.30867304
# HSV = system: HSV; design: method as in Ref.35663971; conditions: Huh7 cells, at 10 μM, ref Ref.35663971
# SARS-CoV-2 [5] = system: SARS-CoV-2; design: method as in Ref.35663971; conditions: SARS-CoV-2, Huh7 cells, at 10 μM; ref Ref.35663971
# Dengue virus 2(DENV2) = system: Dengue virus 2(DENV2); design: method as in Ref.35663971; conditions: DENV2, Huh7 cells, at 10 μM; ref Ref.35663971
# Vero E6 cells = system: Vero E6 cells; design: method as in Ref.35663971; conditions: ref Ref.35663971
# Vero cells [6] = system: Vero cells; design: method as in Ref.35055066; conditions: ref Ref.35055066
substance,measurement,setting,value
AAHLIDALYAEFLGGRVLTTPVVHRALFYASAVLRQPFLAGVPSA [DRAVPe01422],cytotoxicity,Vero cells [1],[Ref.18572274]No cytotoxicity against Vero cells up to 500 μM.
"FVPWFSKFlkRIL [DRAVPe00384, DRAVP database entry, TL peptide]",IC90,HSV-1,12.7 µM
same,IC90,HCoV-229E,50 µM
same,IC90,HSV-2,12.5 µM
same,IC90,HPIV-3,> 50 µM
same,CC50,Vero cells [2],45.92 µM
same,IC90,HCoV-OC43,29.2 µM
same,IC90,SARS-CoV-2 [3],25.3 µM
"MANAGLQLLGFILAFLGW [DRAVPe01317, DRAVP database peptide, target HCV]",CC50,Huh7.5.1 cells,~200 Μm
AAHLIDALYAEFLGGRVLTT [DRAVPe01423],inhibition,[4],60%
same,cytotoxicity,Vero cells [1],[Ref.18572274]No cytotoxicity against Vero cells up to 500 μM.
"ALWMTLLKKVLKAAAKAALNAVLVGANA [DRAVPe01956, DRAVP database peptide, target HIV]",CC50,P4-CCR5 cells,5.6 µM
VSFAIKWEYVLLLFLL [DRAVPe01483],EC90,hepatitis C virus(HCVpp),14 ± 12 µM
same,cytotoxicity,Huh-7 cells,[Ref.20156485]No cytotoxicity against Huh-7 cells.
RRKKAAVALLPAVLLALLAP [DRAVPe01891],cytotoxicity,MDCK cells,[Ref.17005658]No cytotoxicity against MDCK cells up to 50μM
"QLLIRMI [DRAVPe00092, DRAVP database peptide, target HIV-1 integrase]",inhibition of HIV-1 infection,HIV-1,no inhibition
same,decrease of cell viability,P4 cells,~5%
"ALWKTLLKKVLKAAAK [DRAVPe01957, DRAVP database peptide, target HIV]",CC50,P4-CCR5 cells,[Ref.15780876]P4-CCR5 cells:CC50>100 μM.
WEQKIEELLKKAEEQQKKNEEELKKLEKX [DRAVPe00787],CC50,MT-4 cells,19.65 µM
same,CC50,U937 cells,9.97 μ
same,CC50,C8166 cells,19.19 µM
same,CC50,Human PBMC,40.27 µM
same,CC50,TZM-bl cells,12.34 µM
"MGRFKRFRKKFKKLFKKLS [DRAVPe01948, DRAVP database peptide bomidin]",inhibition,HSV,50%
same,inhibition,SARS-CoV-2 [5],80%
same,inhibition,Dengue virus 2(DENV2),50%
same,CC50,Vero E6 cells,169.6 µM
"AIGSILGALAKGLPTLISWIKNR [DRAVPe00469, DRAVP database peptide AR-23]",CC50,Vero cells [6],25 µM
"FVPWFSKFlKRIL [DRAVPe00383, DRAVP database entry, TL peptide]",IC90,HSV-1,10.5 µM
same,IC90,HCoV-229E,50 µM
same,IC90,HSV-2,7.99 µM
same,IC90,HPIV-3,> 50 µM
same,CC50,Vero cells [2],22.32 µM
same,IC90,HCoV-OC43,16.3 µM
same,IC90,SARS-CoV-2 [3],12.9 µM
